Assay: RP, Waters ACQUITY UPLC BEH C18, 50 × 2.1 mm, 1.7 µm, 40 °C, 0.6 mL/min, estimated dead time 0.18 min; A: water + 0.1% formic acid, pH 3; B: acetonitrile + 0.1% formic acid, pH 3; gradient (min/%B) 0/5 7/100 8/100
Settings: stereoisomer not certain

Row | SMILES | LC retention time [min]
1 | COc1cc(O)c2c(c1)C(=O)c1cc(C)cc(O)c1C2=O | 4.7
2 | C=C(C(=O)C(O)C(C)C1C(OC(C)=O)CC2(C)C3CCC4C(C)C(=O)C=CC45CC35CCC12C)C(C)CO (stereo not drawn) | 4.1
3 | C=C1CCC(C(C)C)=CC2C1CCC2(C)O (stereo not drawn) | 3.02
4 | CC[C@H]1C[C@@H]2CN3CCc4c([nH]c5ccccc45)[C@](C(=O)OC)(C2)[C@H]13 | 2.05
5 | COc1ccc(-c2cc(=O)c3c(O)cc(O)cc3o2)cc1-c1c(O)cc(O)c2c(=O)cc(-c3ccc(O)cc3)oc12 | 3.1
6 | CC1CC(C2CCC3N2CCCCC32CC(C)C(=O)O2)OC1=O (stereo not drawn) | 1.07
7 | C/C=C1/CN(C)[C@@H]2Cc3c([nH]c4ccccc34)C(=O)C[C@H]1C2C(=O)OC (stereo partly drawn) | 1.4
8 | COc1cc(/C=C/C(=O)OC2CC3(C)CCC2C3(C)C)ccc1O (stereo not drawn) | 4.97
9 | CC(C)=CC(O)C[C@@H](C)[C@H]1CC[C@@]2(C)C3C(=O)C=C4C(CCC(O)C4(C)C)[C@]3(C)CC[C@]12C (stereo partly drawn) | 4.38
10 | CCCCCCCCCCCCO[C@@H]1O[C@@H](C)[C@H](OC(C)=O)[C@@H](O[C@@H]2O[C@@H](C)[C@H](OC(C)=O)[C@@H](O[C@@H]3O[C@@H](C)[C@H](OC(C)=O)[C@@H](O)[C@H]3O)[C@H]2OC(C)=O)[C@H]1O | 6.32
11 | C=C1CCC2(OC1)OC1CC3C4C(O)C(=O)C5(O)C(O)C(O)C(O)C(O)C5(C)C4CCC3(C)C1C2C (stereo not drawn) | 3.04
12 | CCCCCCCCC/C=C\CCCC[C@@H]1CCC[C@@H](C)N1 [(2R,6R)-2-methyl-6-[(5Z)-pentadec-5-en-1-yl]piperidine] | 4.68
13 | COc1c(CC=C(C)C)c(O)c(CC=C(C)C)c(O)c1C(=O)c1ccc(O)cc1 | 4.77
14 | COc1c2occc2cc2ccc(=O)oc12 [9-methoxy-7H-furo[3,2-g]chromen-7-one] | 2.49
15 | CCC(C)C(=O)C1=C(O)C2(CC=C(C)C)CC(CC=C(C)C)C(C)(C)C(C(CC(=O)O)c3ccccc3)=C2OC1=O (stereo not drawn) | 6.36
16 | C=C1CC23CCC4C(C)(C(=O)O)CCCC4(C)C2CCC1C3 (stereo not drawn) | 5.69
17 | CCCCCCCCCCCCCCC(O)C(O)CCC(O)C1CCC(CCCCCC(O)CC2=CC(C)OC2=O)O1 (stereo not drawn) | 6.01
18 | C=C(C)[C@@]12OC3(/C=C/C=C\CCCCC)O[C@@H]1C1[C@@H]4O[C@]4(CO)[C@@H](O)[C@]4(O)C(=O)C(C)=CC4[C@@]1(O3)[C@H](C)[C@H]2OC(=O)c1ccccc1 (stereo partly drawn) | 5.88
19 | C=C(C)C(CC=C(C)C)Cc1c(O)cc(OC)c2c1OC(c1ccc(O)cc1O)CC2=O (stereo not drawn) | 4.6

Row | SMILES | LC retention time [min]
20 | CC(=O)OC(C)(C)/C=C/C(=O)[C@](C)(O)[C@H]1[C@H](O)C[C@@]2(C)C3CC=C4C(C[C@H](OC5OC(CO)C(O)C(O)C5O)C(=O)C4(C)C)[C@]3(C)C(=O)C[C@]12C (stereo partly drawn) | 2.74
21 | CCN1CC2(COC(=O)c3ccccc3N)CCC(OC)C34C5CC6C(OC)CC(O)(C5C6OC)C(O)(C(OC)C23)C14 (stereo not drawn) | 2.4
22 | C=C1C(=O)O[C@@H]2C[C@@]3(C)CCCC(=C)[C@@H]3C[C@H]12 | 4.2
23 | CC1CCC2(OC1)OC1CC3C4C(O)C(=O)C5(O)C(O)C(O)C(O)C(O)C5(C)C4CCC3(C)C1C2C (stereo not drawn) | 3.19
24 | COc1ccc([C@@]23Oc4cc5c(c(OC)c4[C@]2(O)[C@H](O)[C@H](C(=O)N(C)C)[C@H]3c2ccccc2)OCO5)cc1 | 3.26
25 | COc1cc(/C=C/c2ccc(OCC=C(C)C)cc2)cc(OC)c1 | 5.37
26 | CCCCCCCCCCCCC[C@@H]1CCC[C@@H](C)N1 [(2R,6R)-2-methyl-6-tridecylpiperidine] | 4.58
27 | CC1(C(=O)O)CCCC2(C)C3CCC4CC3(C=C4C=O)CCC12 (stereo not drawn) | 4
28 | CCN1CC2(COC(=O)c3ccccc3NC(=O)C(C)CC(=O)O)CCC(OC)C34C5CC6C(OC)CC(O)(C5C6OC)C(O)(C(OC)C23)C14 (stereo not drawn) | 2.37
29 | COc1c(O)c(O)c(-c2c(O)c(O)c(OC)c3oc4ccccc4c23)c2c1oc1ccccc12 | 3.58
30 | CC1=CC2CC(C)C(CO)/C=C(\C)C(O)C(=O)/C=C(\C)CCC12 (stereo not drawn) | 4.1
31 | C[C@@H]1O[C@@H](O[C@@H]2C(O[C@H]3CC[C@@]4(C)C(CC[C@]5(C)C4CC=C4C6CC(C)(C)CC[C@]6(C(=O)O)CC[C@]45C)[C@]3(C)CO)OC[C@@H](OC3O[C@H](CO)[C@@H](O)[C@H](O)[C@H]3O)[C@H]2O)[C@H](O)[C@H](O[C@@H]2OC[C@@H](O)[C@H](O)[C@H]2O)[C@H]1O (stereo partly drawn) | 2.21
32 | C=C1COC(=O)C12C[C@@]1(C)C([C@@H](OC(=O)/C(C)=C\C)CC[C@@H]1C)[C@H]2OC(C)=O (stereo partly drawn) | 4.16
33 | COc1cc2c3c(c1OC)Oc1ccc(cc1)CC1c4c(cc(OC)c(OC)c4Oc4ccc(cc4)CC3N(C)CC2)CCN1C (stereo not drawn) | 1.79
34 | C=C1C(=O)C23C(O)CC4C(C)(C)CCCC4(CO)C2C(O)CC1C3O (stereo not drawn) | 1.85
35 | CC(=O)OC(C)(C)/C=C/C(=O)[C@](C)(O)[C@H]1[C@H](O)C[C@@]2(C)C3CC=C4C(CC(=O)C(O)C4(C)C)[C@]3(C)C(=O)C[C@]12C (stereo partly drawn) | 2.88
36 | C=CCc1ccc(O)c(-c2ccc(O)c(CC=C)c2)c1 [3',5-bis(prop-2-en-1-yl)-[1,1'-biphenyl]-2,4'-diol] | 3.18
37 | C=C1[C@@H](O)C[C@@H]2[C@](C)(CCC[C@@]2(C)C(=O)O)[C@H]1CC1C(C)=CCC2C(=O)C(OC)=CC(=O)C21c1cc(=O)c2c(O)cc(O)cc2o1 (stereo partly drawn) | 2.95
38 | C=C(C(=O)C(O)C(C)C1C(OC(C)=O)CC2(C)C3CCC4C(C)C(=O)CCC45CC35CCC12C)C(C)CO (stereo not drawn) | 4.6

— the RepoRT retention time repository
